Measurements published in EPA's ToxValDB 9.5 (doi:10.2903/j.efsa.2013.3235).
“And” between values parts separate entries of the source, which are not always exact repeats. Equal entries are not always repeated.

Experiments:
Canidae = details: reproduction developmental; duration: 1 years; Dog Other
Rattus norvegicus = details: for LD50: acute, mortality
Anas platyrhynchos = details: short-term; oral; feed
Coturnix japonica = details: acute; oral; mortality
Mus musculus = details: acute; oral; mortality

| Structure (SMILES) | NOEL (Canidae) | NOEL (Rattus norvegicus; chronic) | NOEL (Anas platyrhynchos) | LD50 (Colinus virginianus; acute, oral, mortality) | NOEL (Colinus virginianus; reproduction developmental) | NOEL (Colinus virginianus; short-term, oral, diet) | LD50 (Coturnix japonica) | LD50 (Rattus norvegicus; F) | LD50 (Rattus norvegicus; M) | LD50 (Rattus norvegicus) | LD50 (Rattus norvegicus; oral) | LC50 (Colinus virginianus; acute, oral, diet, mortality) | LD50 (Mus musculus) |
| --- | --- | --- | --- | --- | --- | --- | --- | --- | --- | --- | --- | --- | --- |
| O=C([O-])[C@H](O)[C@@H](O)[C@H](O)[C@H](O)CO.O=C([O-])[C@H](O)[C@@H](O)[C@H](O)[C@H](O)CO.[Cu+2] [Copper gluconate] | 15 mg/kg-day | 27 mg/kg-day | – | – | – | – | – | – | – | – | – | – | – |
| O.O.[Cu] [Copper hydroxide (Cu(OH)2)] | – | – | 216 mg/kg-day and 191 mg/kg-day | 223 mg/kg | 5.05 mg/kg-day and 5.12 mg/kg-day | 124 mg/kg-day and 135 mg/kg-day | 556 mg/kg | 679 mg/kg | 736 mg/kg | 439 mg/kg and 281 mg/kg | – | – | – |
| [Cu+].[Cu+].[O-2] [Cuprous oxide] | – | – | – | – | – | 31.9 mg/kg-day | 1180 mg/kg | – | – | – | 261 mg/kg | – | – |
| [Cl-].[Cu+2].[Cu+2].[OH-].[OH-].[OH-] [Dicopper chloride trihydroxide] | – | – | – | 511 mg/kg | – | – | – | 548 mg/kg | 693 mg/kg | 1080 mg/kg and 807 mg/kg | – | 333 mg/kg-day | 171 mg/kg |
